Like-named read-outs stand apart in the source and are kept apart here.
Experiments:
[1] = target: T1, GPR86 (P2Y13) human receptor (Homo sapiens, UniProt Q9BPV8, T179M); experiment: IP3 accumulation in 1321N1 cells (AG32) expressing GPR86 (P2Y13) together with Gα16; format: cell-based; set-up: expressed in transfected cells; host or cells: 1321N1 astrocytoma clone AG32 (stably expressing Gα16 from pERAEQ2), G418-selected; details: for IP3 response to nucleotides: 100 μM for 30 s, pool of G418-resistant clones expressing GPR86 and Gα16; for IP3 responses after treatment of the nucleotide solutions with CPK and CP (ATP-regenerating system): 1 mM solutions, 20 units/ml CPK, 10 mM CP, 90 min, FIG. 4B; for agonist character at human P2Y13 receptor: after creatinephosphate and creatinephosphokinase treatment; for effect on IP3 accumulation: 100 nM and 10 μM
T1 sequence (Q9BPV8 22-354 T179M): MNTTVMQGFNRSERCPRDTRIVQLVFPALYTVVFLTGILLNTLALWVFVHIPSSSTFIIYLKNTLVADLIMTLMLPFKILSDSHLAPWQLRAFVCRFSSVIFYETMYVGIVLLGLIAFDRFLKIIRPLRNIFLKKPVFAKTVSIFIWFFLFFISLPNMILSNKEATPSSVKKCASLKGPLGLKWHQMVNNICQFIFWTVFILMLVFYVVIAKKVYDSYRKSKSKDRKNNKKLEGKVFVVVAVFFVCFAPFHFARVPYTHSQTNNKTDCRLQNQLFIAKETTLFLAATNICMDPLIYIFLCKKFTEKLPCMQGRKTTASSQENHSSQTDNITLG
Method: Cells of the invention, for example, 1321N1 cells, are labelled for 24 hours with 10 μCi/ml [^3H] inositol in inositol free DMEM containing 5% FCS, antibiotics, amphotericin, sodium pyruvate and 400 μg/ml G418. Cells are incubated for 2 h in Krebs-Ringer Hepes (KRH) buffer of the following composition (124 mM NaCl, 5 mM KCl, 1.25 mM MgSO4, 1.45 mM CaCl2, 1.25 mM KH2PO4, 25 mM Hepes (pH: 7.4) and 8 mM glucose). The cells are then challenged with various nucleotides for 30 s. The incubation is stopped by the addition of an ice cold 3% perchloric acid solution. IP are extracted and separated on Dowex columns as previously described (25). 2MeSATP and ATP solutions (1 mM) are treated at room temperature with 20 units/ml CPK and 10 Mm cp for 90 min to circumvent problems arising from the contamination and degradation of triphosphate nucleotide solutions.
CHO-K1 and 1321N1 cells were transfected with the recombinant GPR86-pEFIN5 plasmid or with the plasmid alone using the FuGENE™6 transfection reagent (Roche Molecular Biochemicals). A clone called AG32 corresponding to 1321N1 cells previously transfected with pERAEQ2 plasmid encoding Gα16 (provided by Euroscreen), was transfected. The CHO-K1 and 1321N1 transfected cells were selected with 400 μg/ml G418 in complete medium (10% FBS, 100 units/ml penicillin, 100 μg/ml streptomycin and 2.5 μg/ml amphotericin B in respectively Ham's F12 or DMEM (Dulbecco's modified Eagle's) medium) two days after transfection and maintained in the same medium. The AG32 cells were maintained in the same DMEM complete medium supplemented with 500 μg/ml zeocin.
The pool of G418-resistant clones was tested for its functional IP3 response to several nucleotides, according to the method described above. The cells were challenged by various nucleotides at a concentration of 100 μM for 30 s: ATP, ADP, UTP, UDP, ITP, IDP, TDP.
Concentration-action curves for ADP, 2MeSADP and ADPβS. […] 1321N1 transfected cells were incubated in the presence of various concentrations of ADP, 2MeSADP and ADPβS for 30 s. The data represent the mean±S.D. of triplicate experimental points obtained in one representative experiment of three.
AG32 cells were seeded (200,000 cells per dish) on 35 mm (diameter) Petri dishes and labeled for 24 h with 5 μCi/ml [3H]-myoinositol in inositol free DMEM containing 5% fetal calf serum, antibiotics, amphotericin, sodium pyruvate, and 400 μg/ml of G418. Cells were incubated for 2 h in Krebs-Ringer Hepes (KRH) buffer (124 mM NaCl, 5 mM KCl, 1.25 mM MgSO4, 1.45 mM CaCl2, 1.25 mM KH2PO4, 25 mM Hepes (pH 7.4) and 8 mM D-glucose). The cells were then incubated in presence of ADP, ATP or 2MeSATP for 30 s. The incubation was stopped by the addition of 1 ml of an ice-cold 3% perchloric acid solution. Prior to the stimulation, ATP and 2MeSATP (1 mM solutions) were incubated for 90 min at room temperature with 20 units/ml creatine phosphokinase (CPK) and 10 mM creatine phosphate (CP). The reaction was stopped by addition of 10 mM iodoacetamide.
AG32 cells were seeded (200,000 cells per dish) on 35 mm (diameter) Petri dishes and labeled for 24 h with 5 μCi/ml [^3H]-myoinositol in inositol free DMEM containing 5% fetal calf serum, antibiotics, amphotericin, sodium pyruvate, and 400 μg/ml of G418. Cells were incubated for 2 h in Krebs-Ringer Hepes (KRH) buffer (124 mM NaCl, 5 mM KCl, 1.25 mM MgSO4, 1.45 mM CaCl2, 1.25 mM KH2PO4, 25 mM Hepes (pH 7.4) and 8 mM D-glucose). The cells were then incubated in presence of two different concentrations (100 nM and 10 μM) of ADP or ApnA (n=3-6) for 30 s. The incubation was stopped by the addition of 1 ml of an ice-cold 3% perchloric acid solution.
AG32 cells were seeded (200,000 cells per dish) on 35 mm (diameter) Petri dishes and labeled for 24 h with 5 μCi/ml [^3H]-myoinositol in inositol free DMEM containing 5% fetal calf serum, antibiotics, amphotericin, sodium pyruvate, and 400 μg/ml of G418.

[2] = target: T1, GPR86 (P2Y13) human receptor; experiment: Western blot of phosphorylated Erk1 and Erk2 in GPR86-transfected CHO-K1 cells; format: cell-based; set-up: expressed in transfected cells; details: pertussis toxin 100 ng/ml for 18 h; agonist 1 μM, 5 or 30 minutes
Method: To investigate changes in the activation status of the MAP kinases Erk1 and Erk2 upon stimulation of the human GPR86 receptor, whole CHO-K1 transfected cell extracts were analysed by Western blotting using a specific antibody for the dually phosphorylated kinases (at Thr^202 and Tyr^204), which are the active forms of Erk. Western Blot Analysis of phosphorylated Erk1 and Erk2 proteins.
GPR86-transfected CHO-K1 cells were seeded at 1.5×10^6 cells/dish. After 24 h, the cells were serum-starved for 2 h in KRH buffer. After stimulation with the agonist, the cells were scraped in 1 ml of PBS pH 7.3 (137 mM NaCl, 2.7 mM KCl, 4.3 mM Na2HPO4.7H2O and 1.4 mM KH2PO4). The cells were recovered by centrifugation and lysed in 150 μl of Laemmli buffer (10% (w/v) glycerol, 5% (v/v) mercaptoethanol, 2.3% (w/v) SDS, 62.5 mM Tris-HCl pH 6.8). The protein concentration was determined using the method of Minamide and Bamburg (27). The same amount of protein for each condition was electrophoresed in a 12% SDS-polyacrylamide gel. Proteins were then transferred overnight at 60 V and 4° C. onto a nitrocellulose membrane using 20 mM Tris, 154 mM glycine, 20% (v/v) methanol as a transfer buffer. Immunodetection was achieved using the enhanced chemiluminescence Western blotting detection system (ECL, Amersham Phammacia Biotech) using a biotinylated-secondary mouse antibody ( 1/25,000). The monoclonal antibody specific for the dually phosphorylated forms of Erk1 and Erk2 (at Thr^202 and Tyr^204) was used at 1/1000-dilution.
In CHO-K1 cells, phosphorylated Erk1 and Erk2 had the predicted molecular mass of 44 and 42 kDa, respectively. […] GPR86-transfected CHO-K1 cells were stimulated during different times or with various concentrations of ADP and 2MeSADP or water (CONT). The effect of 100 ng/ml pertussis toxin (PTx) has been tested at 5 and 30 min in the presence of 1 μM ADP or 2MeSADP. Blotting and immunodetection were achieved as described using the enhanced chemiluminescence Western blotting detection system (ECL, Amersham Pharmacia Biotech).

[3] = AG32 cells, nucleotides pretreated with creatine phosphokinase and creatine phosphate, 30 s, read-out: EC50, stimulation of GPR86 receptor activity ([3H]IP3)
[4] = 1321N1 cells expressing GPR86 and Gα16

Molecule: CSc1nc(N)c2ncn([C@@H]3O[C@H](COP(=O)(O)OP(=O)(O)OP(=O)(O)O)[C@@H](O)[C@H]3O)c2n1 [2MeSATP, 2-methylthio-ATP]
- IP3 response to nucleotides [1]: responses were lost after HPLC-purification
- IP3 responses after treatment of the nucleotide solutions with CPK and CP (ATP-regenerating system) [1]: abolished
- agonist character at human P2Y13 receptor ([1]; AG32 cells): partial agonists
- EC50 [1, 3]: 1500 ± 200 nM

Molecule: Nc1ncnc2c1ncn2[C@@H]1O[C@H](COP(=O)(O)O)[C@@H](O)[C@H]1OP(=O)(O)O [A2P5P, adenosine 2′,5′-diphosphate]
- IP3 response [1, 4]: No IP3 response

Molecule: Nc1ncnc2c1ncn2[C@@H]1O[C@H](COP(=O)(O)O)[C@@H](OP(=O)(O)O)[C@H]1O [A3P5P, adenosine 3′,5′-diphosphate]
- IP3 response [1, 4]: No IP3 response

Molecule: Nc1ncnc2c1ncn2[C@@H]1O[C@H](COP(=O)(O)OS(=O)(=O)O)[C@@H](OP(=O)(O)O)[C@H]1O [A3P5PS, adenosine 3′-phosphate 5′-phosphosulfate]
- IP3 response [1, 4]: No IP3 response

Molecule: Nc1ncnc2c1ncn2[C@@H]1O[C@H](COP(=O)(O)OP(=O)(O)OP(=O)(O)O)[C@@H](O)[C@H]1O [ATP]
- IP3 response to nucleotides [1]: responses were lost after HPLC-purification
- IP3 responses after treatment of the nucleotide solutions with CPK and CP (ATP-regenerating system) [1]: abolished
- agonist character at human P2Y13 receptor ([1]; AG32 cells): partial agonists
- EC50 [1, 3]: 4200 ± 800 nM

Molecule: Nc1ncnc2c1ncn2[C@@H]1O[C@H](COP(=O)(O)OP(=O)(O)OP(=O)(O)OC[C@H]2O[C@@H](n3cnc4c(N)ncnc43)[C@H](O)[C@@H]2O)[C@@H](O)[C@H]1O [Ap3A]
- effect on IP3 accumulation ([1]; AG32 cells, 30 s): almost equal to that of ADP

Molecule: Nc1ncnc2c1ncn2[C@@H]1O[C@H](COP(=O)(O)OP(=O)(O)OP(=O)(O)OP(=O)(O)OC[C@H]2O[C@@H](n3cnc4c(N)ncnc43)[C@H](O)[C@@H]2O)[C@@H](O)[C@H]1O [Ap4A]
- effect on IP3 accumulation ([1]; AG32 cells, 30 s): inactive

Molecule: Nc1ncnc2c1ncn2[C@@H]1O[C@H](COP(=O)(O)OP(=O)(O)OP(=O)(O)OP(=O)(O)OP(=O)(O)OC[C@H]2O[C@@H](n3cnc4c(N)ncnc43)[C@H](O)[C@@H]2O)[C@@H](O)[C@H]1O [Ap5A]
- effect on IP3 accumulation ([1]; AG32 cells, 30 s): inactive

Molecule: Nc1ncnc2c1ncn2[C@@H]1O[C@H](COP(=O)(O)OP(=O)(O)OP(=O)(O)OP(=O)(O)OP(=O)(O)OP(=O)(O)OC[C@H]2O[C@@H](n3cnc4c(N)ncnc43)[C@H](O)[C@@H]2O)[C@@H](O)[C@H]1O [Ap6A]
- effect on IP3 accumulation ([1]; AG32 cells, 30 s): inactive

Molecule: O=c1[nH]cnc2c1ncn2[C@@H]1O[C@H](COP(=O)(O)OP(=O)(O)O)[C@@H](O)[C@H]1O [IDP]
- IP3 response to nucleotides [1]: induced an IP3 response

Molecule: O=c1[nH]cnc2c1ncn2[C@@H]1O[C@H](COP(=O)(O)OP(=O)(O)OP(=O)(O)O)[C@@H](O)[C@H]1O [ITP]
- IP3 response to nucleotides [1]: No IP3 response

Molecule: Cc1cn([C@H]2C[C@H](O)[C@@H](COP(=O)(O)OP(=O)(O)O)O2)c(=O)[nH]c1=O [TDP]
- IP3 response to nucleotides [1]: No IP3 response

Molecule: O=c1ccn([C@@H]2O[C@H](COP(=O)(O)OP(=O)(O)O)[C@@H](O)[C@H]2O)c(=O)[nH]1 [UDP]
- IP3 response to nucleotides [1]: induced an IP3 response

Molecule: O=c1ccn([C@@H]2O[C@H](COP(=O)(O)OP(=O)(O)OP(=O)(O)O)[C@@H](O)[C@H]2O)c(=O)[nH]1 [UTP]
- IP3 response to nucleotides [1]: No IP3 response

Molecule: Poly[A]
- activity on human GPR86 after creatinephosphate/creatinephosphokinase treatment ([1]; AG32 cells, 30 s, FIG. 10): still able to activate GPR86
- EC50 ([1]; AG32 cells, after creatinephosphate/creatinephosphokinase treatment, concentration in AMP equivalent, read-out: EC50, activation of GPR86 ([3H]IP3)): 205000 ± 60000 nM

Molecule: adenosine 5′-O-(2-thiodiphosphate) [ADPβS]
- EC50 ([1]; 1321N1 cells expressing GPR86 and Gα16, 30 s, mean±S.D. of three independent experiments, read-out: EC50, IP3 accumulation): 48.4 ± 0.4 nM

Molecule: pertussis toxin
- effect on Erk phosphorylation induced by ADP or 2-MeSADP [2]: strongly inhibited
- inhibition of the ADP response (IP3) ([1]; ADP 300 nM, 18 hours pretreatment with 100 ng/ml pertussis toxin, mean±range of two independent experiments): 86±8%

— US7422846B2, “Natural ligand for orphan G protein coupled receptor GPR86 and methods of use” (Euroscreen S.A, priority 2001, dated 2008)
